Like-named read-outs stand apart in the source and are kept apart here.
Key:
Assay type in all cases: cell-based
5-HT2A receptor = target: T1, 5-HT2A receptor (Homo sapiens, UniProt P28223); test: R-SAT functional receptor assay; conditions: for EC50: agonist
T1 construct: expressed in transfected cells; host or cells: NIH3T3 cells, pSI expression vector

5-HT7 = target: T2, 5-HT7 (Homo sapiens, UniProt P34969); test: R-SAT broad profiling; conditions: read-out: pEC50/pIC50 (converted)
T2 construct: expressed in transfected cells
Protocol: (§1) The functional receptor assay, Receptor Selection and Amplification Technology (R-SAT), was used (with minor modifications from that previously described U.S. Pat. No. 5,707,798) to screen compounds for efficacy at the 5-HT2A receptor. Briefly, NIH3T3 cells were grown in 96 well tissue culture plates to 70-80% confluence. Cells were transfected for 12-16 hours with plasmid DNAs using superfect (Qiagen Inc.) as per manufacture's protocols. R-SAT's were generally performed with 50 ng/well of receptor and 20 ng/well of Beta-galactosidase plasmid DNA. All receptor and G-protein constructs used were in the pSI mammalian expression vector (Promega Inc) as described in U.S. Pat. No. 5,707,798. The 5HT2A receptor gene was amplified by nested PCR from brain cDNA using the oligodeoxynucleotides based on the published sequence (see Saltzman et. al. Biochem. Biophys. Res. Comm. 181:1469-78 (1991)). Large-scale transfections, cells were transfected for 12-16 hours, then trypsinized and frozen in DMSO. Frozen cells were later thawed, plated at 10,000-40,000 cells per well of a 96 well plate that contained drug. With both methods, cells were then grown in a humidified atmosphere with 5% ambient CO2 for five days. Media was then removed from the plates and marker gene activity was measured by the addition of the beta-galactosidase substrate ONPG (in PBS with 5% NP-40). The resulting colorimetric reaction was measured in a spectrophotometric plate reader (Titertek Inc.)at […]. All data were analyzed using the computer program XLFit (IDBSm). Efficacy is the percent maximal repression compared to repression by a control compound (ritanserin in the case of 5HT2A). pIC50 is the negative of the log(IC50), where IC50 is the calculated concentration in Molar that produces 50% maximal repression.
(§2) The R-SAT assay (described above in example 136) was used to investigate the selectivity of 2-(4-Methoxyphenyl)-N-(4-methylbenzyl)-N-(1-methylpiperidin-4-yl)acetamide hydrochloride.

Histamine 2 = target: T3, Histamine 2 (Homo sapiens, UniProt P25021); test: R-SAT broad profiling; conditions: read-out: pEC50/pIC50 (converted)
T3 construct: expressed in transfected cells; host or cells: NIH3T3
Protocol: as §1, §2

Histamine 3 = target: T4, Histamine 3 (Homo sapiens, UniProt Q9Y5N1); test: R-SAT broad profiling; conditions: read-out: pEC50/pIC50 (converted)
T4 construct: expressed in transfected cells; host or cells: NIH3T3
Protocol: as §1, §2

alpha 2A = target: T5, alpha 2A (Homo sapiens, UniProt P08913); test: R-SAT broad profiling; conditions: read-out: pEC50/pIC50 (converted)
T5 construct: expressed in transfected cells; host or cells: NIH3T3
T5 sequence (P08913 1-465): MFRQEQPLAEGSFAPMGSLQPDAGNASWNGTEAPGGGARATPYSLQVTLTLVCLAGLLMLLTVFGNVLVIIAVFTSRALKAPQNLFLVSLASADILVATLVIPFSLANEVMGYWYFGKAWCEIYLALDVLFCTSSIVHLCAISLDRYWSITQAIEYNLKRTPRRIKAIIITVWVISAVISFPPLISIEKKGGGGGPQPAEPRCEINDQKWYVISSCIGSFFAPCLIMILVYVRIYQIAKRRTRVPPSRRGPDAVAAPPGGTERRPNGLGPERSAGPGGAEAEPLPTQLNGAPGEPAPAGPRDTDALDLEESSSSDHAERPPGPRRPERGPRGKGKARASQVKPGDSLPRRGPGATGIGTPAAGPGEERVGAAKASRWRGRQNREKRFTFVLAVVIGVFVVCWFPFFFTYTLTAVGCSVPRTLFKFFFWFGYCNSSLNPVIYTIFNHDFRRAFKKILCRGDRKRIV
Protocol: as §1, §2

alpha-1A(a/c) = target: T6, alpha-1A(a/c) (Homo sapiens, UniProt P35348); test: R-SAT broad profiling; conditions: read-out: pEC50/pIC50 (converted)
T6 construct: expressed in transfected cells; host or cells: NIH3T3
Protocol: as §1, §2

m4 = target: T7, m4 (Homo sapiens, UniProt P08173); test: R-SAT broad profiling; conditions: read-out: pEC50/pIC50 (converted)
T7 construct: expressed in transfected cells; host or cells: NIH3T3
T7 sequence (P08173 1-479): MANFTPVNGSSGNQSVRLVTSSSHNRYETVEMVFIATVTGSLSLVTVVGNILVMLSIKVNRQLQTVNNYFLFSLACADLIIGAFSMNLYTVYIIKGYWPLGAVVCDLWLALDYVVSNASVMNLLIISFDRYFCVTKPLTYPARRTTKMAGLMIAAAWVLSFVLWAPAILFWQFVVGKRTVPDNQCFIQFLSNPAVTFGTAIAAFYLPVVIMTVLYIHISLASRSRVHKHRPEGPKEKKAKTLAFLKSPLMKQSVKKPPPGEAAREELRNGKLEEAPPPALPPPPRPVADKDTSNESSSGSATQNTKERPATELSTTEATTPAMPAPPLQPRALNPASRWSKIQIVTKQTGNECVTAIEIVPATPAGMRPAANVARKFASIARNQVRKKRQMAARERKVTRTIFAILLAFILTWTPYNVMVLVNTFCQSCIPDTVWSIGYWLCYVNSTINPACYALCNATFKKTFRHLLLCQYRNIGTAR
Protocol: as §1, §2

T1 sequence (P28223 whole entry): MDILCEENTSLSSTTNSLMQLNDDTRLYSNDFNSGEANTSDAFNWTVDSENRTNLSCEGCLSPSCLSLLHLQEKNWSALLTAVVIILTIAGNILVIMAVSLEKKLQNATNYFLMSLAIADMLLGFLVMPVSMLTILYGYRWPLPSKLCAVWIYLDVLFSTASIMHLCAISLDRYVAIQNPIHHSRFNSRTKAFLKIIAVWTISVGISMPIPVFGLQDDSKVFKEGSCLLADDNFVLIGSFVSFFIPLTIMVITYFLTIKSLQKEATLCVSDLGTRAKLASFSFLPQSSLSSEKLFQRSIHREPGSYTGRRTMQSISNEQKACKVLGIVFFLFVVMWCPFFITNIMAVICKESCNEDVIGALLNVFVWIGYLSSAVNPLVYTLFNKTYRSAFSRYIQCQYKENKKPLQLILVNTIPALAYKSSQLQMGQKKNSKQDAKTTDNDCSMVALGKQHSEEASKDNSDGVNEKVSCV
T6 sequence (P35348 whole entry): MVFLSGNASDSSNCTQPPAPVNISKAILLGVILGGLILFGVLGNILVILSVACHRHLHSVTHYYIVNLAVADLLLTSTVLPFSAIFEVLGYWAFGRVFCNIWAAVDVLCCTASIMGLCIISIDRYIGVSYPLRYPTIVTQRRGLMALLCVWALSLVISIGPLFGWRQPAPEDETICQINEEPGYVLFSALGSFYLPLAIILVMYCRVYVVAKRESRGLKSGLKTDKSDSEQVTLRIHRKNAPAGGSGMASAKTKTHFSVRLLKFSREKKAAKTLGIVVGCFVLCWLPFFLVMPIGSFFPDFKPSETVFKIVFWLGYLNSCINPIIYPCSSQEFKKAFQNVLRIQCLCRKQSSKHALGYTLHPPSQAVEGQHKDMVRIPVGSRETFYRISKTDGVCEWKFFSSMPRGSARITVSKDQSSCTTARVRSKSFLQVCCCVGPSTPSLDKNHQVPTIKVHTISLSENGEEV
T2 sequence (P34969 whole entry, species assumed): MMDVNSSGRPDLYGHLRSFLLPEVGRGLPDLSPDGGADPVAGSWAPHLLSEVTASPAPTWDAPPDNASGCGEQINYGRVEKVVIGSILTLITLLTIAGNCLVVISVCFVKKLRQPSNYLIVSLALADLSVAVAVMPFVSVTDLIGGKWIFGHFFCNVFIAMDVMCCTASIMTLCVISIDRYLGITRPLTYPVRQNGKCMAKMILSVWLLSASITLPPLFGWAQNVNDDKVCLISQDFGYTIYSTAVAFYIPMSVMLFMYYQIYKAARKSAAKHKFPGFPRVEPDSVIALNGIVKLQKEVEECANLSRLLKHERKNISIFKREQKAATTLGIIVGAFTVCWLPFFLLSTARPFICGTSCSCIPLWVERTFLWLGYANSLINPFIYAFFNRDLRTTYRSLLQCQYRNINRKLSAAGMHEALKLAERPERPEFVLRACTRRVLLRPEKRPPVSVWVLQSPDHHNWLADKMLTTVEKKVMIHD
T4 sequence (Q9Y5N1 whole entry): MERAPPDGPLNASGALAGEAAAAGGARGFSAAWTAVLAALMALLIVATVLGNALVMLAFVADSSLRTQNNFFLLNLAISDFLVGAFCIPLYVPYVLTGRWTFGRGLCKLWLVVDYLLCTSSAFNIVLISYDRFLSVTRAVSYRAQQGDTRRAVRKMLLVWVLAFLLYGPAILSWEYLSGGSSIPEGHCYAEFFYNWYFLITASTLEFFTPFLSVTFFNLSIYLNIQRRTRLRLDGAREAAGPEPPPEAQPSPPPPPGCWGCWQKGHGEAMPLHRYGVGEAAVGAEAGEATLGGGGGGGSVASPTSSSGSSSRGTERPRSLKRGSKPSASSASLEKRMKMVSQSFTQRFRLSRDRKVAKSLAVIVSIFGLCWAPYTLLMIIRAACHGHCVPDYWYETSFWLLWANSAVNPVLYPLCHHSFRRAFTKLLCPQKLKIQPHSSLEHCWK
T3 sequence (P25021 whole entry): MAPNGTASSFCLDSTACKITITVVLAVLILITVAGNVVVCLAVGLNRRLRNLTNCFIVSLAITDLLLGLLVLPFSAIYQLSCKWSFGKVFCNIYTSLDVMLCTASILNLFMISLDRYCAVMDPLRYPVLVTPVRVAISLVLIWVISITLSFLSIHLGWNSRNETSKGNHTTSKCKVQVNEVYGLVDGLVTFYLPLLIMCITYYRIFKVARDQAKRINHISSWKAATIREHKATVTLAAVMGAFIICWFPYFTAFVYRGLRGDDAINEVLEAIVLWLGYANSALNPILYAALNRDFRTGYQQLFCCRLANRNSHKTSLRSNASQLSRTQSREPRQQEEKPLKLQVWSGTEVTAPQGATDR

Row | Emax (5-HT2A receptor; 120 h, read-out: Percent Efficacy, compared to ritanserin) | IC50 (5-HT2A receptor; Table 3, read-out: pIC50 (converted)) | EC50 (5-HT2A receptor; read-out: pEC50/pIC50 (converted)) | IC50 (5-HT2A receptor; inverse agonist, read-out: pEC50/pIC50 (converted)) | EC50 (5-HT7; agonist) | IC50 (5-HT7; inverse agonist) | EC50 (Histamine 2; agonist) | IC50 (Histamine 2; antagonist) | EC50 (Histamine 3; agonist) | IC50 (Histamine 3; antagonist) | EC50 (alpha 2A; agonist) | IC50 (alpha 2A; antagonist) | EC50 (alpha-1A(a/c); agonist) | IC50 (alpha-1A(a/c); antagonist) | EC50 (m4; agonist) | IC50 (m4; antagonist) | Compound | EC50 (5-HT2A receptor; read-out: pEC50 or pIC50 (converted)) | 5HT2A % inhibition (5-HT2A receptor; compared to ritanserin) | efficacy in brackets (5-HT2A receptor; inverse)
1 | 108% | 0.002 µM | > 3.16 µM | 0.00158 µM | > 3.16 µM | 0.126 µM | > 3.16 µM | > 3.16 µM | > 3.16 µM | > 3.16 µM | > 3.16 µM | > 3.16 µM | > 3.16 µM | > 3.16 µM | > 3.16 µM | > 3.16 µM | COc1ccc(CC(=O)N(Cc2ccc(C)cc2)C2CCN(C)CC2)cc1 [Example 50ELH27, 2-(4-Methoxyphenyl)-N-(4-methylbenzyl)-N-(1-methylpiperidin-4-yl)acetamide] | – | – | –
2 | – | – | – | – | – | – | – | – | – | – | – | – | – | – | – | – | CC(C)COc1ccc(CN2C(=O)OC3(CCN(C)CC3)C2Cc2ccc(F)cc2)cc1.Cl (racemic) [Example 69NLS75, 4-(4-Fluorobenzyl)-3-(4-isobutoxybenzyl)-8-methyl-1-oxa-3,8-diazaspiro[4.5]decan-2-one, hydrochloride] | > 3.16 µM | 94% | 94%

Reference: patent publication US20080051429A1, “USE OF 4-AMINO-PIPERIDINES FOR TREATING SLEEP DISORDERS” (priority 2006, published 2008)
